In patent publication US9545105B2, “1-(heterocyclic carbonyl) piperidines” (BAYER INTELLECTUAL PROPERTY GMBH, priority 2010, dated 2017):

Assays:
Septoria tritici = experiment: In vivo preventive test on Septoria tritici (wheat); conditions: 500 ppm of active ingredient, evaluated 21 days after inoculation
Procedure: (§1) Solvent: 49 parts by weight of N,N-dimethylacetamide Emulsifier: 1 part by weight of alkylaryl polyglycol ether To produce a suitable preparation of active compound, 1 part by weight of active compound or active compound combination is mixed with the stated amounts of solvent and emulsifier, and the concentrate is diluted with water to the desired concentration. To test for preventive activity, young plants are sprayed with the preparation of active compound or active compound combination at the stated rate of application. After the spray coating has been dried, the plants are sprayed with a spore suspension of Septoria tritici. The plants remain for 48 hours in an incubation cabinet at approximately 20° C. and a relative atmospheric humidity of approximately 100% and afterwards for 60 hours at approximately 15° C. in a translucent incubation cabinet at a relative atmospheric humidity of approximately 100%. The plants are placed in the greenhouse at a temperature of approximately 15° C. and a relative atmospheric humidity of approximately 80%. The test is evaluated 21 days after the inoculation. 0% means an efficacy which corresponds to that of the untreated control, while an efficacy of 100% means that no disease is observed.

Pyrenophora teres = experiment: In vivo preventive test on Pyrenophora teres (barley); conditions: 500 ppm of active ingredient, evaluated 7-9 days after inoculation
Outline: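 Young barley plants sprayed with compound in DMF/alkylaryl polyglycol ether emulsion; inoculated with P. teres spores one day later. 48 h at 22 °C, 100% humidity, then greenhouse ~20 °C, ~80% humidity; efficacy scored 7-9 days post-inoculation, 0% = untreated, 100% = no disease.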

Venturia inaequalis = experiment: In vivo preventive test on Venturia inaequalis (apple scab); conditions: 100 ppm of active ingredient, evaluated 10 days after inoculation
Procedure: (§2) Solvent: 24.5 parts by weight of acetone • 24.5 parts by weight of N,N-dimethylacetamide Emulsifier: 1 part by weight of alkylaryl polyglycol ether To produce a suitable preparation of active compound, 1 part by weight of active compound is mixed with the stated amounts of solvent and emulsifier, and the concentrate is diluted with water to the desired concentration. To test for preventive activity, young plants are sprayed with the preparation of active compound at the stated rate of application. After the spray coating has dried on, the plants are inoculated with an aqueous conidia suspension of the causal agent of apple scab (Venturia inaequalis) and then remain for 1 day in an incubation cabinet at approximately 20° C. and a relative atmospheric humidity of 100%. The plants are then placed in a greenhouse at approximately 21° C. and a relative atmospheric humidity of approximately 90%. The test is evaluated 10 days after the inoculation. 0% means an efficacy which corresponds to that of the untreated control, while an efficacy of 100% means that no disease is observed.

Sphaerotheca fuliginea = experiment: In vivo preventive test on Sphaerotheca fuliginea (cucumber); conditions: 500 ppm of active ingredient, evaluated 7 days after inoculation
Procedure: Solvent: 49 parts by weight of N,N-dimethylformamide Emulsifier: 1 part by weight of Alkylarylpolyglycolether To produce a suitable preparation of active compound, 1 part by weight of active compound is mixed with the stated amounts of solvent and emulsifier, and the concentrate is diluted with water to the desired concentration. To test for preventive activity, young plants are sprayed with the preparation of active compound at the stated rate of application. One day after this treatment, the plants are inoculated with an aqueous spore suspension of Sphaerotheca fuliginea. Then the plants are placed in a greenhouse at approximately 23° C. and a relative atmospheric humidity of approximately 70%. The test is evaluated 7 days after the inoculation. 0% means an efficacy which corresponds to that of the untreated control, while an efficacy of 100% means that no disease is observed.

[1] = log P by HPLC on reversed-phase column (C 18), EEC Directive 79/831 Annex V.A8; assay type: physicochemical; conditions: HPLC on reversed-phase column (C 18), 40° C., 0.1% aqueous formic acid and acetonitrile, linear gradient 10% to 90% acetonitrile
Outline: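 40° C; 0.1% aq. formic acid/acetonitrile, linear gradient 10→90% acetonitrile. Calibration: unbranched alkan-2-ones (C3–C16), known log P. log P from retention time, linear interpolation between neighbouring alkanones. lambda-max from UV 200–400 nm at peak maxima.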

Uromyces appendiculatus = experiment: In vivo preventive test on Uromyces appendiculatus (bean rust); conditions: 100 ppm of active ingredient, evaluated 10 days after inoculation
Procedure: as §2, with “spore” for “conidia”, “bean rust (Uromyces appendiculatus)” for “apple scab (Venturia inaequalis)”

Alternaria solani = experiment: In vivo preventive test on Alternaria solani (tomato); conditions: 500 ppm of active ingredient, evaluated 7 days after inoculation
Outline: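 Young tomato plants were sprayed preventively with compound in DMF/alkylarylpolyglycolether diluted in water, then inoculated one day later with A. solani spores. Incubation was 1 day at about 22 °C and 100% RH, then about 20 °C and 96% RH. Efficacy was scored 7 days after inoculation (0% = untreated control, 100% = no disease).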

[2] = test system: Blumeria graminis f. sp. hordei; experiment: In vivo preventive test on Blumeria graminis (barley); conditions: 500 ppm of active ingredient, evaluated 7 days after inoculation
Procedure: Solvent: 49 parts by weight of N,N-dimethylacetamide Emulsifier: 1 part by weight of alkylaryl polyglycol ether To produce a suitable preparation of active compound, 1 part by weight of active compound or active compound combination is mixed with the stated amounts of solvent and emulsifier, and the concentrate is diluted with water to the desired concentration. To test for preventive activity, young plants are sprayed with the preparation of active compound or active compound combination at the stated rate of application. After the spray coating has been dried, the plants are dusted with spores of Blumeria graminis f. sp. hordei. The plants are placed in the greenhouse at a temperature of approximately 18° C. and a relative atmospheric humidity of approximately 80% to promote the development of mildew pustules. The test is evaluated 7 days after the inoculation. 0% means an efficacy which corresponds to that of the untreated control, while an efficacy of 100% means that no disease is observed.

Puccinia triticina = experiment: In vivo preventive test on Puccinia triticina (wheat); conditions: 500 ppm of active ingredient, evaluated 8 days after inoculation
Procedure: as §1, with “Puccinia triticina.” for “Septoria tritici.”, “approximately” for “approximately 100% and afterwards for 60 hours at approximately 15° C. in a translucent incubation cabinet at a relative atmospheric humidity of approximately”, “20°” for “15°”, “8” for “21”

[3] = test system: Fusarium nivale (var. majus); experiment: In vivo preventive test on Fusarium nivale (wheat); conditions: 500 ppm of active ingredient, evaluated 5 days after inoculation
Procedure: Solvent: 49 parts by weight of N,N-dimethylacetamide Emulsifier: 1 part by weight of alkylaryl polyglycol ether To produce a suitable preparation of active compound, 1 part by weight of active compound or active compound combination is mixed with the stated amounts of solvent and emulsifier, and the concentrate is diluted with water to the desired concentration. To test for preventive activity, young plants are sprayed with the preparation of active compound or active compound combination at the stated rate of application. After the spray coating has been dried, the plants are slightly injured by using a sandblast and afterwards they are sprayed with a conidia suspension of Fusarium nivale (var. majus). The plants are placed in the greenhouse under a translucent incubation cabinet at a temperature of approximately 10° C. and a relative atmospheric humidity of approximately 100%. The test is evaluated 5 days after the inoculation. 0% means an efficacy which corresponds to that of the untreated control, while an efficacy of 100% means that no disease is observed.

Leptosphaeria nodorum = experiment: In vivo preventive test on Leptosphaeria nodorum (wheat); conditions: 500 ppm of active ingredient, evaluated 8 days after inoculation
Procedure: as §1, with “Leptosphaeria nodorum.” for “Septoria tritici.”, “approximately” for “approximately 100% and afterwards for 60 hours at approximately 15° C. in a translucent incubation cabinet at a relative atmospheric humidity of approximately”, “22°” for “15°”, “8” for “21”

Phakopsora pachyrhizi = experiment: In vivo protective test on Phakopsora pachyrhizi (soybeans); conditions: 250 ppm of active ingredient, evaluated 11 days after inoculation

SMILES: Cc1ccccc1C1CCCCN1C(=O)c1c(C)nn(C)c1F (centres unmarked) [Example 1, (5-fluoro-1,3-dimethyl-1H-pyrazol-4-yl)[2-(2-methylphenyl)-piperidin-1-yl]methanone]
- Efficacy (Septoria tritici): 100%
- Efficacy (Pyrenophora teres): 100%
- Efficacy (Venturia inaequalis): 99%
- Efficacy (Sphaerotheca fuliginea): 95%
- chromatographic logP ([1]; reversed-phase HPLC column (C 18)): 2.71
- Efficacy (Uromyces appendiculatus): 100%
- Efficacy (Alternaria solani): 95%
- Efficacy [2]: 89%

SMILES: CCc1nn(C)c(F)c1C(=O)N1CCCCC1c1ccccc1C (centres unmarked) [Example 4]
- Efficacy (Septoria tritici): 100%
- Efficacy (Pyrenophora teres): 100%
- Efficacy (Sphaerotheca fuliginea): 95%
- logP [1]: 3.06
- Efficacy (Alternaria solani): 95%
- Efficacy [2]: 78%

SMILES: Cc1cc(C)cc(C2CCCCN2C(=O)c2c(C(F)F)nn(C)c2F)c1 (centres unmarked) [Example 30]
- Efficacy (Septoria tritici): 100%
- Efficacy (Pyrenophora teres): 100%
- Efficacy (Venturia inaequalis): 100%
- Efficacy (Puccinia triticina): 100%
- Efficacy (Sphaerotheca fuliginea): 100%
- Efficacy [3]: 100%
- logP [1]: 3.71
- Efficacy [2]: 100%
- Efficacy (Leptosphaeria nodorum): 90%

SMILES: Cc1nn(C)c(F)c1C(=O)N1CCCCC1c1cccc(Cl)c1 (centres unmarked) [Example 44]
- Efficacy (Septoria tritici): 90%
- Efficacy (Pyrenophora teres): 100%
- Efficacy (Sphaerotheca fuliginea): 89%
- logP [1]: 2.94
- Efficacy (Alternaria solani): 95%

SMILES: Cc1cc(C(=O)N2CCCCC2c2ccc(Cl)cc2)c(C)o1 (centres unmarked) [Example 53]
- Efficacy (Septoria tritici): 90%
- Efficacy (Pyrenophora teres): 95%
- Efficacy (Puccinia triticina): 71%
- Efficacy [3]: 100%
- logP [1]: 4.04
- Efficacy (Alternaria solani): 90%
- Efficacy [2]: 70%
- Efficacy (Leptosphaeria nodorum): 78%

SMILES: CCc1nn(C)c(F)c1C(=O)N1CCCCC1c1cc(OC)cc(OC)c1 (centres unmarked) [Example 67]
- Efficacy (Phakopsora pachyrhizi): 90%
- Efficacy (Pyrenophora teres): 90%
- Efficacy (Venturia inaequalis): 100%
- logP [1]: 2.84
- Efficacy (Uromyces appendiculatus): 95%
- Efficacy (Alternaria solani): 95%

SMILES: Cc1nn(C)c(F)c1C(=O)N1CCCCC1c1cccc(Cl)c1Cl (centres unmarked) [Example 73]
- Efficacy (Septoria tritici): 80%
- Efficacy (Pyrenophora teres): 100%
- Efficacy (Sphaerotheca fuliginea): 85%
- logP [1]: 3.25
- Efficacy (Alternaria solani): 95%

SMILES: Cc1nn(C)c(F)c1C(=O)N1CCCCC1c1cc(Cl)ccc1Cl (centres unmarked) [Example 83]
- Efficacy (Septoria tritici): 80%
- Efficacy (Pyrenophora teres): 100%
- Efficacy (Sphaerotheca fuliginea): 94%
- logP [1]: 3.29
- Efficacy (Alternaria solani): 95%

SMILES: Cc1nn(C)c(F)c1C(=O)N1CCCCC1c1ccccc1Br (centres unmarked) [Example 88]
- Efficacy (Septoria tritici): 89%
- Efficacy (Pyrenophora teres): 95%
- Efficacy (Sphaerotheca fuliginea): 94%
- logP [1]: 2.99
- Efficacy (Alternaria solani): 95%

SMILES: Cc1nn(C)c(F)c1C(=O)N1CCCCC1c1cccc(Br)c1 (centres unmarked) [Example 95]
- Efficacy (Septoria tritici): 100%
- Efficacy (Pyrenophora teres): 95%
- Efficacy (Puccinia triticina): 71%
- Efficacy (Sphaerotheca fuliginea): 91%
- Efficacy [3]: 100%
- logP [1]: 3.06
- Efficacy (Alternaria solani): 100%
- Efficacy [2]: 100%
- Efficacy (Leptosphaeria nodorum): 89%

SMILES: CCC(c1ccccc1Cl)C1CCCCN1C(=O)c1c(C(F)F)nn(C)c1F (centres unmarked) [Example 162]
- Efficacy (Septoria tritici): 100%
- Efficacy (Pyrenophora teres): 100%
- Efficacy (Puccinia triticina): 100%
- Efficacy (Sphaerotheca fuliginea): 100%
- logP [1]: 4.13
- Efficacy (Alternaria solani): 100%
- Efficacy [2]: 94%
- Efficacy (Leptosphaeria nodorum): 90%

SMILES: CCC(c1ccccc1Cl)C1CCCCN1C(=S)c1c(C(F)F)nn(C)c1F (centres unmarked) [Example 165]
- Efficacy (Pyrenophora teres): 100%
- Efficacy (Venturia inaequalis): 99%
- Efficacy (Sphaerotheca fuliginea): 100%
- logP [1]: 4.95
- Efficacy (Uromyces appendiculatus): 73%
- Efficacy (Alternaria solani): 90%
